Consider seven compounds from patent publication US8735322B2, “Herbicides” (Syngenta Limited, priority 2008, dated 2014).

Molecules are shown by their SMILES.

Type in all cases: in vivo
Assay [1] deals with Lolium perenne (LOLPE). The assay is described as follows: Example A pre-emergence herbicidal activity, glasshouse pot test. The following applies: 480 h, rate 500 g/ha, evaluated 20 days later, 100=total damage to plant, 0=no damage to plant. Here is the method: (§1) Seeds of a variety of test species were sown in standard soil in pots. After cultivation for one day (pre-emergence) or after 10 days cultivation (post-emergence) under controlled conditions in a glasshouse, the plants were sprayed with an aqueous spray solution derived from the formulation of the technical active ingredient in 0.6 ml acetone and 45 ml formulation solution containing 10.6% Emulsogen EL (Registry number 61791-12-6), 42.2% N-methylpyrrolidone, 42.2% dipropylene glycol monomethyl ether (Registry number 34590-94-8) and 0.2% X-77 (Registry number 11097-66-8). The test plants were then grown in a greenhouse under optimum conditions until, 15 days later for post-emergence and 20 days for pre-emergence, the test was evaluated (100=total damage to plant; 0=no damage to plant). Alopecurus myosuroides (ALOMY), Avena fatua (AVEFA), Lolium perenne (LOLPE), Setaria faberi (SETFA), Digitaria sanguinalis (DIGSA), Echinochloa crus-galli (ECHCG) Pre-Emergence Activity

The test system of assay [2] is Alopecurus myosuroides (ALOMY). Described as above. The following applies: 480 h, rate 500 g/ha, evaluated 20 days later, 100=total damage to plant, 0=no damage to plant. Here is the method: as §1
The subject of assay [3] is Echinochloa crus-galli (ECHCG). Described as above. The settings on record: 480 h, rate 500 g/ha, evaluated 20 days later, 100=total damage to plant, 0=no damage to plant. Here is the method:
as §1

The test system of assay [4] is Avena fatua (AVEFA). The description is as above. The following applies: 480 h, rate 500 g/ha, evaluated 20 days later, 100=total damage to plant, 0=no damage to plant. How it is done:
as §1

Assay [5] has as its system Digitaria sanguinalis (DIGSA). The assay can be described thus: Example A post-emergence herbicidal activity, glasshouse pot test. The following applies: 360 h, rate 500 g/ha, evaluated 15 days after spraying, read-out: herbicidal damage DIGSA (100=total damage to plant; 0=no damage to plant). How it is done: as §1, with “Post Emergency” for “Pre-Emergence”
Assay [6] has as its system Setaria faberi (SETFA). The description is as above. The following applies: 360 h, rate 500 g/ha, evaluated 15 days after spraying, read-out: herbicidal damage SETFA (100=total damage to plant; 0=no damage to plant). How it is done: as §1, with “Post Emergency” for “Pre-Emergence”
Assay [7] has as its system Lolium perenne (LOLPE). Described as above. The settings on record: 360 h, rate 500 g/ha, evaluated 15 days after spraying, read-out: herbicidal damage LOLPE (100=total damage to plant; 0=no damage to plant). How it is done:
as §1, with “Post Emergency” for “Pre-Emergence”

Assay [8] deals with Alopecurus myosuroides (ALOMY). Described as above. The following applies: 360 h, rate 500 g/ha, evaluated 15 days after spraying, read-out: herbicidal damage ALOMY (100=total damage to plant; 0=no damage to plant). How it is done:
as §1, with “Post Emergency” for “Pre-Emergence”

For assay [9], the system named is Echinochloa crus-galli (ECHCG). The description is as above. The following applies: 360 h, rate 500 g/ha, evaluated 15 days after spraying, read-out: herbicidal damage ECHCG (100=total damage to plant; 0=no damage to plant). How it is done:
as §1, with “Post Emergency” for “Pre-Emergence”

For assay [10], the system named is Avena fatua (AVEFA). The description is as above. The settings on record: 360 h, rate 500 g/ha, evaluated 15 days after spraying, read-out: herbicidal damage AVEFA (100=total damage to plant; 0=no damage to plant). How it is done:
as §1, with “Post Emergency” for “Pre-Emergence”

Assay [11] has as its system Solanum nigrum (SOLNI). The assay is described as follows: Example B post-emergence herbicidal activity, glasshouse pot test. The settings on record: 312 h, rate 1000 g/ha, evaluated after 13 days, read-out: herbicidal damage SOLNI (100=total damage to plant; 0=no damage to plant). Here is the method: (§2) Seeds of a variety of test species were sown in standard soil in pots. After cultivation for one day (pre-emergence) or after 8 days cultivation (post-emergence) under controlled conditions in a glasshouse (at 24/16° C., day/night; 14 hours light; 65% humidity), the plants were sprayed with an aqueous spray solution derived from the formulation of the technical active ingredient in acetone/water (50:50) solution containing 0.5% Tween 20 (polyoxyethelyene sorbitan monolaurate, CAS RN 9005-64-5). The test plants were then grown in a glasshouse under controlled conditions in a glasshouse (at 24/16° C., day/night; 14 hours light; 65% humidity) and watered twice daily. After 13 days for pre and post-emergence, the test was evaluated (100=total damage to plant; 0=no damage to plant). Alopecurus myosuroides (ALOMY), Avena fatua (AVEFA), Setaria faberi (SETFA), Echinochloa crus-galli (ECHCG), Solanum nigrum (SOLNI) and Amaranthus retroflexus (AMARE) Post-Emergence Activity

The subject of assay [12] is Setaria faberi (SETFA). The description is as above. The following applies: 312 h, rate 1000 g/ha, evaluated after 13 days, read-out: herbicidal damage SETFA (100=total damage to plant; 0=no damage to plant). How it is done: as §2
For assay [13], the system named is Amaranthus retroflexus (AMARE). The description is as above. The settings on record: 312 h, rate 1000 g/ha, evaluated after 13 days, read-out: herbicidal damage AMARE (100=total damage to plant; 0=no damage to plant). Here is the method:
as §2

Assay [14] deals with Alopecurus myosuroides (ALOMY). Described as above. The following applies: 312 h, rate 1000 g/ha, evaluated after 13 days, read-out: herbicidal damage ALOMY (100=total damage to plant; 0=no damage to plant). How it is done: as §2
The subject of assay [15] is Echinochloa crus-galli (ECHCG). The description is as above. The following applies: 312 h, rate 1000 g/ha, evaluated after 13 days, read-out: herbicidal damage ECHCG (100=total damage to plant; 0=no damage to plant). How it is done:
as §2

In assay [16] the test system is Avena fatua (AVEFA). The assay is described as above. The settings on record: 312 h, rate 1000 g/ha, evaluated after 13 days, read-out: herbicidal damage AVEFA (100=total damage to plant; 0=no damage to plant). How it is done:
as §2

Assay [17] has as its system Solanum nigrum (SOLNI). The assay is described as follows: Example B pre-emergence herbicidal activity, glasshouse pot test. The settings on record: 312 h, rate 1000 g/ha, evaluated after 13 days, read-out: herbicidal damage SOLNI (100=total damage to plant; 0=no damage to plant). How it is done: as §2, with “Pre-Emergence” for “Post-Emergence”
Assay [18] has as its system Setaria faberi (SETFA). The description is as above. The settings on record: 312 h, rate 1000 g/ha, evaluated after 13 days, read-out: herbicidal damage SETFA (100=total damage to plant; 0=no damage to plant). Here is the method:
as §2, with “Pre-Emergence” for “Post-Emergence”

The subject of assay [19] is Amaranthus retroflexus (AMARE). The assay is described as above. The following applies: 312 h, rate 1000 g/ha, evaluated after 13 days, read-out: herbicidal damage AMARE (100=total damage to plant; 0=no damage to plant). Here is the method:
as §2, with “Pre-Emergence” for “Post-Emergence”

Assay [20] concerns Alopecurus myosuroides (ALOMY). Described as above. The settings on record: 312 h, rate 1000 g/ha, evaluated after 13 days, read-out: herbicidal damage ALOMY (100=total damage to plant; 0=no damage to plant). How it is done: as §2, with “Pre-Emergence” for “Post-Emergence”
Assay [21] deals with Echinochloa crus-galli (ECHCG). Described as above. The settings on record: 312 h, rate 1000 g/ha, evaluated after 13 days, read-out: herbicidal damage ECHCG (100=total damage to plant; 0=no damage to plant). How it is done: as §2, with “Pre-Emergence” for “Post-Emergence”
Assay [22] relates to Avena fatua (AVEFA). The assay is described as above. The following applies: 312 h, rate 1000 g/ha, evaluated after 13 days, read-out: herbicidal damage AVEFA (100=total damage to plant; 0=no damage to plant). Here is the method: as §2, with “Pre-Emergence” for “Post-Emergence”

Turning to `CCc1cc(C)cc(CC)c1C1=C(O)CC(C(C)C2CCOCC2)CC1=O` (stereo not shown) [Compound A-11], the pest or weed control at 500 g/ha in the assay on Lolium perenne (LOLPE) [1] was found to be 100%; in assay [2], 100%; in [3] it was 70%; in the assay on Avena fatua (AVEFA) [4] it was 100%; in assay [5], 90%; in the assay on Setaria faberi (SETFA) [6], 80%. Besides, the pest or weed control at 500 g/ha is 90% in the assay on Lolium perenne (LOLPE) [7], 100% in assay [8], 100% in assay [9] and 90% in the assay with Avena fatua (AVEFA) [10].
For `Cc1ccc(-c2ccc(Cl)cc2)cc1C1=C(O)CC(CC2OCC(CC3CCOCC3)O2)CC1=O` (stereo not shown) [Compound A-60], the pest or weed control at 1000 g/ha in the assay on Solanum nigrum (SOLNI) [11] is 0%; in the assay on Setaria faberi (SETFA) [12], 90%; in assay [13], 0%; in assay [14], 60%; in assay [15], 90%; with Avena fatua (AVEFA) [16], 10%. For the same compound, the pest or weed control at 1000 g/ha in the assay with Solanum nigrum (SOLNI) [17] came out at 0%; in the assay on Setaria faberi (SETFA) [18] it was 30%; in assay [19] it was 0%; in [20], 0%; in assay [21] it was 30%; with Avena fatua (AVEFA) [22] it was 0%.
Take `Cc1ccc(-c2ccc(Cl)cc2)cc1C1=C(O)CC(CC2O[C@H]3COC[C@H]3O2)CC1=O` (stereo partly shown) [Compound A-61]: the pest or weed control at 1000 g/ha in the assay with Solanum nigrum (SOLNI) [11] was determined as 0%; in the assay with Setaria faberi (SETFA) [12], 100%; in assay [13], 0%; in assay [14], 90%; in [15], 100%; with Avena fatua (AVEFA) [16], 80%. In addition, the pest or weed control at 1000 g/ha in the assay on Solanum nigrum (SOLNI) [17] amounted to 0%; in the assay on Setaria faberi (SETFA) [18], 30%; in assay [19], 0%; in [20] it was 0%; in assay [21], 20%; in the assay on Avena fatua (AVEFA) [22] it was 0%.
As for `Cc1ccc(-c2ccc(Cl)cc2)cc1C1=C(O)CC(CC2OCCCCO2)CC1=O` (stereo not shown) [Compound A-62], the pest or weed control at 1000 g/ha in the assay on Solanum nigrum (SOLNI) [11] was 0%; in the assay with Setaria faberi (SETFA) [12], 100%; in [13], 0%; in assay [14] it was 90%; in [15], 100%; with Avena fatua (AVEFA) [16] it was 80%. Besides, the pest or weed control at 1000 g/ha in the assay on Solanum nigrum (SOLNI) [17] was 0%; in the assay on Setaria faberi (SETFA) [18] it was 60%; in assay [19] it was 0%; in assay [20], 20%; in assay [21] it was 50%; in the assay on Avena fatua (AVEFA) [22] it was 0%.
`COCC1COC(CC2CC(=O)C(c3cc(-c4ccc(Cl)cc4)ccc3C)=C(O)C2)O1` (stereo not shown) [Compound A-63]: the pest or weed control at 1000 g/ha in the assay with Solanum nigrum (SOLNI) [11] was 0%; in the assay with Setaria faberi (SETFA) [12] it was 100%; in assay [13], 0%; in [14], 90%; in assay [15], 100%; in the assay on Avena fatua (AVEFA) [16] it was 90%. The pest or weed control at 1000 g/ha stood at 0% in the assay with Solanum nigrum (SOLNI) [17]; 70% with Setaria faberi (SETFA) [18]; 20% in assay [19]; 0% in [20]; 20% in assay [21]; 0% with Avena fatua (AVEFA) [22].
Turning to `Cc1ccc(-c2ccc(Cl)cc2)cc1C1=C(O)CC(CC2OCC(C)CO2)CC1=O` (stereo not shown) [Compound A-64], the pest or weed control at 1000 g/ha with Solanum nigrum (SOLNI) [11] came to 0%; in the assay with Setaria faberi (SETFA) [12], 100%; in assay [13] it was 0%; in assay [14], 80%; in [15], 100%; in the assay on Avena fatua (AVEFA) [16], 80%. In addition, the pest or weed control at 1000 g/ha with Solanum nigrum (SOLNI) [17] was 0%; in the assay on Setaria faberi (SETFA) [18] it was 50%; in assay [19], 0%; in assay [20], 0%; in [21] it was 50%; with Avena fatua (AVEFA) [22], 0%.
In the case of `Cc1ccc(-c2ccc(Cl)cc2)cc1C1=C(O)CC(CC2OCC3(CC3)CO2)CC1=O` (stereo not shown) [Compound A-65], the pest or weed control at 1000 g/ha in the assay on Solanum nigrum (SOLNI) [11] worked out at 60%; in the assay with Setaria faberi (SETFA) [12], 70%; in [13], 90%; in assay [14], 40%; in assay [15] it was 70%; with Avena fatua (AVEFA) [16], 20%. The pest or weed control at 1000 g/ha was 20% with Solanum nigrum (SOLNI) [17]; 60% in the assay with Setaria faberi (SETFA) [18]; 30% in assay [19]; 20% in [20]; 70% in assay [21]; 0% in the assay with Avena fatua (AVEFA) [22].
